Laboratory results reported in US11046699B2, “Pyrazolo-pyrimidin-amino-cycloalkyl compounds and their therapeutic uses” (RAPT THERAPEUTICS, INC., priority 2018, dated 2021).

Each molecule was assayed against GCN2 (Homo sapiens, UniProt Q9P2K8) (assay: GCN2 enzymatic endpoint assay: phosphorylation of GFP-eIF2α measured by TR-FRET (Lanthascreen)). Settings: GCN2 biochemical IC50; 4 nM GCN2, 2 μM ATP, 80 nM GFP-eIF2α, 90 min RT; read-out: GCN2 activity.
Format: biochemical
How it was run: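 Reaction started with 2 μM ATP and 80 nM GFP-labelled eIF2α substrate at room temperature, stopped with EDTA after 90 minutes. Phospho-eIF2α detected by terbium-labelled antibody TR-FRET; activity taken as 520 nm (fluorescein) to 495 nm (terbium) emission ratio.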

Sequence of GCN2 (Q9P2K8 whole entry): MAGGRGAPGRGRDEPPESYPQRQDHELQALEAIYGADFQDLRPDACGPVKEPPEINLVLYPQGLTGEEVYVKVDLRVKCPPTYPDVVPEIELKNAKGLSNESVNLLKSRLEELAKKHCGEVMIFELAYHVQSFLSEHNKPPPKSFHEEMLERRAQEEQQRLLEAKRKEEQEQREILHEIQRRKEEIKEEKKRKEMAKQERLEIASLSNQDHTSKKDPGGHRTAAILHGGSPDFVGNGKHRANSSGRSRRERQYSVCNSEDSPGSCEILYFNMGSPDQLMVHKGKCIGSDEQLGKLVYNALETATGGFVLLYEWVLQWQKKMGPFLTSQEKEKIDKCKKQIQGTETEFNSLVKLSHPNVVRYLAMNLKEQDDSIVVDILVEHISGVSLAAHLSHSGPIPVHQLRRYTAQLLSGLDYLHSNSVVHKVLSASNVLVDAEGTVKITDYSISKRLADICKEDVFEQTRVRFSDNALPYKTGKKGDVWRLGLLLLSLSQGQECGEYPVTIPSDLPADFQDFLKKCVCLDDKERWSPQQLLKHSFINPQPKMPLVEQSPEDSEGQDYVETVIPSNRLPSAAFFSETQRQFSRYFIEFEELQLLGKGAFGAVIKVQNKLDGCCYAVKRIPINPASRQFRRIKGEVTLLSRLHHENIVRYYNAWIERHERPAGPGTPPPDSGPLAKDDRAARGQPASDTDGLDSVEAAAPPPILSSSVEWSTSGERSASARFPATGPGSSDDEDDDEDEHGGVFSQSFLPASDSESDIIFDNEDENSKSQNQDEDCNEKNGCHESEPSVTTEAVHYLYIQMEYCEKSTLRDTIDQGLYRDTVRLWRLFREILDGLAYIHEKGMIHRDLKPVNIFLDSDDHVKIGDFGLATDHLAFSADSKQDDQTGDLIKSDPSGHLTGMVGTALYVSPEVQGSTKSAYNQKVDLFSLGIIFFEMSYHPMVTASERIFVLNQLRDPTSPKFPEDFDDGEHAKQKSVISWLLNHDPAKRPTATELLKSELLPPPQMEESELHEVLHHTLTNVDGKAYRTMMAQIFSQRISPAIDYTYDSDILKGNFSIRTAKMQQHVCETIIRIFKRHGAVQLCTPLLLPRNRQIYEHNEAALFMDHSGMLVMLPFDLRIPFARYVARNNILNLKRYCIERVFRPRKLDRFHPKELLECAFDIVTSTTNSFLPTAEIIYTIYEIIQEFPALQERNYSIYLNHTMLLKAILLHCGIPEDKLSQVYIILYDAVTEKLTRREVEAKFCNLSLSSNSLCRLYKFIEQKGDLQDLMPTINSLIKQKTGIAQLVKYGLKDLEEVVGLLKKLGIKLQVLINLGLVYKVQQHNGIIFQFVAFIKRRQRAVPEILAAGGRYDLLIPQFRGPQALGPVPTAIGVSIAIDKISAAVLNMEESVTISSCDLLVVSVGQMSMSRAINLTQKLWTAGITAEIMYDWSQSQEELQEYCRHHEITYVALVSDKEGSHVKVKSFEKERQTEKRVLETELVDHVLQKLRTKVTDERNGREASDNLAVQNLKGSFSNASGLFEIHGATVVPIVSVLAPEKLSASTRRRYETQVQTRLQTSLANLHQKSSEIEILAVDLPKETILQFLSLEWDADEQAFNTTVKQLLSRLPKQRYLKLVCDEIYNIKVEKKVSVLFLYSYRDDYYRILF

Row | IC50 [nM] | SMILES
1 | < 25 | CNC(=O)[C@]1(C)CC[C@@H](Nc2ncc3c(Br)nn(-c4cc(C#N)c5ncccc5c4)c3n2)C1 (single isomer, unassigned) [Example 23]
2 | < 25 | Cc1nnc(-c2ccc(-n3nc(Br)c4cnc(N[C@@H]5CC[C@@](C)(O)C5)nc43)cc2C#N)s1 [Example 67, 5-(3-bromo-6-(((1R,3R)-3-hydroxy-3-methylcyclopentyl)amino)-1H-pyrazolo[3,4-d]pyrimidin-1-yl)-2-(5-methyl-1,3,4-thiadiazol-2-yl)benzonitrile]
3 | 25 to 200 | CNC(=O)[C@]1(C)CC[C@@H](Nc2ncc3c(Br)nn(-c4ccc5c(c4)CN(S(C)(=O)=O)C5)c3n2)C1 [Example 61, (1R,3R)-3-((3-bromo-1-(2-(methylsulfonyl)isoindolin-5-yl)-1H-pyrazolo[3,4-d]pyrimidin-6-yl)amino)-N,1-dimethylcyclopentane-1-carboxamide]

Same assay, conditions: tested as described in Example 77; compound and/or hydrochloride, dihydrochloride or trifluoroacetic acid salt; read-out: IC 50 Activity

Row | IC50 [nM] | SMILES
4 | 25 to 200 | CNC(=O)C1(CCS(C)(=O)=O)CC[C@@H](Nc2ncc3c(Br)nn(-c4ccc(-c5nnc(C)s5)cc4)c3n2)C1 (stereo partly drawn) [(3R)-3-[[3-bromo-1-[4-(5-methyl-1,3,4-thiadiazol-2-yl)phenyl]pyrazolo[3,4-d]pyrimidin-6-yl]amino]-N-methyl-1-(2-methylsulfonylethyl)cyclopentane-carboxamide]
5 | 25 to 200 | O=C(NC1CCCN(CCF)C1)[C@@H]1CC[C@@H](Nc2ncc3c(Br)nn(-c4cc(F)c5ncccc5c4)c3n2)C1 (mixture of isomers)
6 | < 25 | O=C([C@@H]1CC[C@@H](Nc2ncc3c(Br)nn(-c4cc(F)c5ncccc5c4)c3n2)C1)N1CCN2C(=O)CC[C@@H]2C1 [(8aR)-2-[(1R,3R)-3-[[3-bromo-1-(8-fluoro-6-quinolyl)pyrazolo[3,4-d]pyrimidin-6-yl]amino]cyclopentane-carbonyl]-1,3,4,7,8,8a-hexahydro-pyrrolo[1,2-a]pyrazin-6-one]
7 | 25 to 200 | CNC(=O)[C@]1(C)CC[C@@H](Nc2ncc3c(Br)nn(-c4cc(CN5C(=O)CNCC5=O)c5ncccc5c4)c3n2)C1 [(1R,3R)-3-[[3-bromo-1-[8-[(2,6-dioxo-piperazin-1-yl)methyl]-6-quinolyl]pyrazolo [3,4-d]pyrimidin-6-yl]amino]-N,1-dimethyl-cyclopentanecarboxamide]
8 | 25 to 200 | Fc1cc(-n2nc(Br)c3cnc(NC4COC4)nc32)cc2cccnc12 [3-bromo-1-(8-fluoro-6-quinolyl)-N-(oxetan-3-yl)pyrazolo[3,4-d]pyrimidin-6-amine]
9 | 500 to 1000 | O=S(=O)(NC1CCC1)[C@@H]1CC[C@@H](Nc2ncc3c(Br)nn(-c4ccc5ncccc5c4)c3n2)C1 [(1R,3R)-3-((3-bromo-1-(quinolin-6-yl)-1H-pyrazolo[3,4-d]pyrimidin-6-yl)amino)-N-cyclobutylcyclopentane-1-sulfonamide]
10 | 25 to 200 | CNC(=O)[C@]1(C)CC[C@@H](Nc2ncc3c(Br)nn(-c4ccc(-c5cnccn5)nc4)c3n2)C1 [(1R,3R)-3-[[3-bromo-1-(6-pyrazin-2-yl-3-pyridyl)pyrazolo[3,4-d]pyrimidin-6-yl]amino]-N,1-dimethyl-cyclopentane-carboxamide]
11 | 25 to 200 | CNC(=O)[C@]1(C)CC[C@@H](Nc2ncc3c(Br)nn(-c4ccc5nc(OC)ccc5c4)c3n2)C1 [(1R,3R)-3-[[3-bromo-1-(2-methoxy-6-quinolyl)pyrazolo[3,4-d]pyrimidin-6-yl]amino]-N,1-dimethyl-cyclopentane-carboxamide]
12 | < 25 | CNC(=O)[C@]1(C)CC[C@@H](Nc2ncc3c(Br)nn(-c4ccc5ncc(NC(=O)C6CNC6)cc5c4)c3n2)C1 [N-[6-[3-bromo-6-[[(1R,3R)-3-methyl-3-(methylcarbamoyl)cyclopentyl]amino]pyrazolo[3,4-d]pyrimidin-1-yl]-3-quinolyl]azetidine-3-carboxamide]
13 | 25 to 200 | CNC(=O)[C@]1(C)CC[C@@H](Nc2ncc3c(Br)nn(-c4cc(Cl)cc(C(=O)N5CCNCC5)c4)c3n2)C1 [(1R,3R)-3-[[3-bromo-1-[3-chloro-5-(piperazine-1-carbonyl)phenyl]pyrazolo [3,4-d]pyrimidin-6-yl]amino]-N,1-dimethyl-cyclopentanecarboxamide]
14 | 500 to 1000 | O=C(O)C12CCC(Nc3ncc4c(Br)nn(-c5ccc6ncccc6c5)c4n3)(C1)C2 [4-((3-bromo-1-(quinolin-6-yl)-1H-pyrazolo [3,4-d]pyrimidin-6-yl)amino)bicyclo[2.1.1] hexane-1-carboxylic acid]
15 | 25 to 200 | CNC(=O)[C@@H]1CC[C@@H](Nc2ncc3c(Br)nn(-c4ccc5nc(C)c(F)cc5c4)c3n2)C1 [(1R,3R)-3-((3-bromo-1-(3-fluoro-2-methyl-quinolin-6-yl)-1H-pyrazolo[3,4-d]pyrimidin-6-yl)amino)-N-methylcyclopentane-1-carboxamide]
16 | 25 to 200 | CNC(=O)C1(C)CC[C@@H](Nc2ncc3c(Br)nn(-c4ccc5cnc(OC)cc5c4)c3n2)C1 (stereo partly drawn) [(3R)-3-[[3-bromo-1-(3-methoxy-6-isoquinolyl)pyrazolo[3,4-d]pyrimidin-6-yl]amino]-N,1-dimethyl-cyclopentane-carboxamide]
17 | 25 to 200 | Cc1nnc(-c2ccc(-n3nc(Br)c4cnc(N[C@@H]5CCC[C@@H](P(C)(C)=O)C5)nc43)cc2)s1 [3-bromo-N-[(1R,3R)-3-dimethylphosphoryl-cyclohexyl]-1-[4-(5-methyl-1,3,4-thiadiazol-2-yl)phenyl]pyrazolo[3,4-d]pyrimidin-6-amine]
18 | 25 to 200 | CC(F)(F)CNC(=O)[C@@H]1CC[C@@H](Nc2ncc3c(Br)nn(-c4cc(C#N)c5ncccc5c4)c3n2)C1 [(1R,3R)-3-((3-bromo-1-(8-cyanoquinolin-6-yl)-1H-pyrazolo[3,4-d]pyrimidin-6-yl)amino)-N-(2,2-difluoropropyl)cyclopentane-1-carboxamide]
19 | 25 to 200 | O=C(N[C@@H]1CNC[C@H]1F)[C@@H]1CC[C@@H](Nc2ncc3c(Br)nn(-c4cc(F)c5ncccc5c4)c3n2)C1 [(1R,3R)-3-((3-bromo-1-(8-fluoroquinolin-6-yl)-1H-pyrazolo[3,4-d]pyrimidin-6-yl)amino)-N-((3R,4R)-4-fluoropyrrolidin-3-yl)cyclo-pentane-1-carboxamide]
20 | 25 to 200 | O=C([C@@H]1CC[C@@H](Nc2ncc3c(Br)nn(-c4ccc5ncccc5c4)c3n2)C1)N1C2CCC1COC2 [(3-oxa-8-azabicyclo[3.2.1]octan-8-yl)((1R,3R)-3-((3-bromo-1-(quinolin-6-yl)-1H-pyrazolo [3,4-d]pyrimidin-6-yl)amino)cyclopentyl) methanone]
21 | 25 to 200 | Cc1nnc(-c2ccc(-n3nc(Br)c4cnc(NC5CC(P(C)(C)=O)C5)nc43)cc2)s1 (stereo not drawn) [3-bromo-N-(3-dimethylphosphorylcyclo-butyl)-1-[4-(5-methyl-1,3,4-thiadiazol-2-yl)phenyl]pyrazolo[3,4-d]pyrimidin-6-amine]
22 | 500 to 1000 | COCCNC(=O)[C@@H]1CC[C@@H](Nc2ncc3c(Br)nn(-c4cncc(OC)c4)c3n2)C1 [(1R,3R)-3-((3-bromo-1-(5-methoxypyridin-3-yl)-1H-pyrazolo[3,4-d]pyrimidin-6-yl)amino)-N-(2-methoxyethyl)cyclopentane-1-carboxamide]

Row | SMILES | IC50 [nM]
23 | CNC(=O)CC1CC(Nc2ncc3c(Br)nn(-c4ccc(-c5nnc(C)s5)cc4)c3n2)C1 (stereo not drawn) | 25 to 200
24 | CNC(=O)[C@]1(C)CC[C@@H](Nc2ncc3c(Br)nn(-c4cc(Cl)c(F)c(CN)c4)c3n2)C1 | 25 to 200
